{"source": "patent US8470874B2", "about": "“Pharmaceutical compositions comprising cannabichromene type compounds” (GW Pharma Limited, priority 2003, dated 2013)", "key": {"prostaglandin synthesis": {"tested_on": "prostaglandin synthesis", "conditions": "in vitro; cited from earlier work"}, "mice": {"tested_on": "mice", "conditions": "cited from earlier work"}, "C57BL6BYJ mice": {"tested_on": "C57BL6BYJ mice", "assay": "tail suspension test", "type": "in vivo", "conditions": "male mice", "experimental": "The experiment used 112 C57BL6BYJ mice (Jackson Laboratories, Bar Harbor, Me.) which were housed in same sex groups (n=3-5) and maintained on a reversed 12 h light-dark cycle, with all testing being completed during the first 4 h of the dark phase cycle. Food and water were provided ad libitum except during behavioural testing. The subjects were six weeks old at the time of testing and consisted of groups with equal numbers of males (18-26 g) and females (15-21 g).\nThe substantially pure CBC extract (54.0 mg/ml in ethanol) was diluted in Tween 80 and subsequently diluted further to the correct dose with PBS (pH 7.4). The final concentration of Tween 80 was 5% for all preparations.\nImipramine (30 mg/kg) was used as an antidepressant control and diluted as per the CBC extract. Test article at doses of 0, 5, 10, 20, 40, 80 mg/kg/0.01 ml/g bodyweight were administered i.p. under sodium light to minimise exposure to light.\nFor the tail suspension test, a sound-attenuated chamber (Lafayette Instruments, Lafayette, Ind.) with a titanium bar (1 cm diameter×24 cn long) mounted 15 cm from the floor of the test chamber was used. An opto-electronic sensor was mounted in a 4 cm×4 cm white plastic column and positioned 5 cm from the mounting bar. An infra-red light transmitted from the light emitting diode onto the animal. If the animal moved, the amount of light collected by the phototransistor would increase or decrease depending on the size and duration of the movement. The opto-electric sensor was connected to an interface designed to condition and amplify the signal (range 0-10 volts) and then send the amplified signal to an A/D interface board (Powerlab 4/s: AD Instruments, Mountain View, Calif.) connected to a Macintosh G4 microcomputer. The duration of the experiment and the recording of raw behavioural responses was controlled and saved to a data file using Chart 3.6 data collection software (AD Instruments, Mountain View, Calif.).\nOn the day of testing, the mice were weighed and randomly assigned to groups with the restriction that equal numbers of males and females be represented in each group. Test article or control drug was injected intraperitoneally. Thirty minutes later each mouse was tested on the tail-suspension test for six minutes.\nThe mouse was suspended from a bar by the tail using adhesive tape so that the tip of their nose was 2 cm from the floor of the tail suspension chamber. The photodiode was then placed 5 cm away from the subject and aimed at the middle of the subject's ventral surface. Each subject was tested for six minutes. The total number of movements and total amount of time spent immobile were recorded. […] A period of immobility was counted only if no movements above 350 mV were recorded for at least 1000 ms. The total amount of time spent immobile was calculated by summing the duration of the individual immobility periods. These criteria were selected to be similar to those used in previous tail suspension studies (e.g., Steru et al., 1985).\nAntidepressant effects are indicated by an increase in the frequency of struggling activity during the test. In addition the degree or amplitude of struggling is thought to be a predictor of antidepressant activity.\nThe results shown in FIGS. 2 to 7 are from the male mice only as the data obtained from the female mice were confounded by the oestrous cycle."}, "dogs": {"tested_on": "dogs", "conditions": "cited from earlier work"}, "rat paw edema": {"tested_on": "rat paw edema", "conditions": "in vivo, equivalent doses; cited from earlier work"}, "rats [1]": {"tested_on": "rats", "conditions": "co-administration of CBC with THC; cited from earlier work"}, "rats [2]": {"tested_on": "rats", "conditions": "cited from earlier work"}, "monkeys or humans": {"tested_on": "monkeys or humans", "conditions": "cited from earlier work"}, "erythrocyte membrane": {"tested_on": "erythrocyte membrane", "conditions": "in vitro, equivalent doses; cited from earlier work"}}, "note": "Where two headings read alike, the source gives them in different places."}
{"smiles": "CCCCCc1cc(O)c2c(c1)OC1(C)CCC3C1C2C3(C)C", "note": "(centres unmarked) [Cannabicyclol]", "values": [{"measurement": "inhibition of prostaglandin synthesis", "setting": "prostaglandin synthesis", "value": "almost no inhibitory activity"}]}
{"smiles": "CCCCCc1cc(O)c2c(c1)OC(C)(C)[C@@H]1CCC(C)=C[C@@H]21", "note": "[Δ9-THC]", "values": [{"measurement": "LD50", "setting": "mice; single intraperitoneal dose", "value": 276.3, "unit": "mg/kg"}, {"measurement": "LD50", "setting": "mice; Δ9-THC with 25 mg/kg CBC given concurrently", "value": 152.0, "unit": "mg/kg"}]}
{"smiles": "CCCCCc1cc(O)cc(O)c1", "note": "[Olivetol]", "values": [{"measurement": "inhibition of prostaglandin synthesis", "setting": "prostaglandin synthesis", "value": "high activity"}]}
{"smiles": "CN(C)CCCN1c2ccccc2CCc2ccccc21", "note": "[imipramine, reference compound]", "values": [{"measurement": "activity mean (all activity)", "setting": "C57BL6BYJ mice; imipramine 30 mg/kg/0.01 ml/g bodyweight i.p., 30 min after dosing, 6 min test", "value": 733.5}]}
{"smiles": "CCCCCc1cc(O)c2c(c1)OC(C)(CCC=C(C)C)C=C2", "note": "(centres unmarked) [CBC, cannabichromene]", "values": [{"measurement": "inhibition of prostaglandin synthesis", "setting": "prostaglandin synthesis", "value": "less potently than THC or CBD"}, {"measurement": "sedation", "setting": "dogs", "value": "causes sedation"}, {"measurement": "anti-inflammatory effect compared with phenylbutazone", "setting": "rat paw edema", "value": "as effective as phenylbutazone (PBZ)"}, {"measurement": "all activity compared with imipramine", "setting": "C57BL6BYJ mice; CBC 10 mg/kg/0.01 ml/g bodyweight i.p. vs imipramine 30 mg/kg", "value": "comparable to those observed in the mice administered imipramine"}, {"measurement": "degree of struggling (percentage very large vigorous movements), mean", "setting": "C57BL6BYJ mice; CBC 20 mg/kg/0.01 ml/g bodyweight i.p.", "value": 31.4, "unit": "%"}, {"measurement": "degree of struggling (percentage very large vigorous movements), mean", "setting": "C57BL6BYJ mice; CBC 80 mg/kg/0.01 ml/g bodyweight i.p.", "value": 30.2, "unit": "%"}, {"measurement": "number of large vigorous movements compared with imipramine", "setting": "C57BL6BYJ mice; CBC 10 and 40 mg/kg/0.01 ml/g bodyweight i.p. vs imipramine 30 mg/kg", "value": "comparable number of large vigorous movements"}, {"measurement": "number of large vigorous movements compared with imipramine", "setting": "C57BL6BYJ mice; CBC 20 or 80 mg/kg/0.01 ml/g bodyweight i.p. vs imipramine 30 mg/kg", "value": "greater number of large vigorous movements in the animals than imipramine"}, {"measurement": "most efficient dose for antidepressant action", "setting": "C57BL6BYJ mice; i.p., from Fisher's PLSD of struggling", "value": "20 mg/kg/0.01 ml/g bodyweight"}, {"measurement": "effect on THC changes in heart rate", "setting": "rats [1]", "value": "potentiates the THC changes in heart rate"}, {"measurement": "effect on THC's hypotensive effects", "setting": "rats [1]", "value": "does not potentiate THC's hypotensive effects"}, {"measurement": "LD50", "setting": "mice; single intraperitoneal dose", "value": 113.4, "unit": "mg/kg"}, {"measurement": "muscular coordination", "setting": "rats [2]", "value": "decreased muscular coordination"}, {"measurement": "cannabimimetic activity", "setting": "monkeys or humans", "value": "has not been shown to cause any cannabimimetic activity"}, {"measurement": "anti-inflammatory effect compared with phenylbutazone", "setting": "erythrocyte membrane", "value": "as effective as phenylbutazone (PBZ)"}]}
